Reference: patent US4250170A, “Antibacterial agents Bu-2349A and B and method of using same” (Bristol-Myers Company, priority 1979, dated 1981)
In brackets after ≈: the same amount, converted by molar mass. Like-named read-outs stand apart in the source and are kept apart here.

How the values were obtained:
[1] = system: Peptococcus aerogenes ATCC 14963 (Pe-101); experiment: MIC against anaerobic bacteria; type: cell-based; conditions: Peptoniphilus asaccharolyticus, ATCC14963, 18 h; Table 4; GAM Medium, pH 7
[2] = system: Enterobacter cloacae (El-35), AAC(3)-3; experiment: MIC, two-fold agar dilution; type: cell-based; conditions: 18 h, Table 3, Mueller-Hinton agar, 10^-4 dilution, enzyme AAC(3)-3
[3] = system: Serratia marcescens (Sm-2); experiment: MIC, two-fold agar dilution; type: cell-based; conditions: 18 h, Table 3, Mueller-Hinton agar, 10^-4 dilution
P. mirabilis A9554 = experiment: experimental infections in mice; type: in vivo; conditions: Proteus mirabilis, A9554, 120 h, im, 100 X LD50 ip challenge, 5 days, read-out: PD50 (median protective dose)
Description: (§1) The in vivo antibacterial activity of Bu-2349A was determined by experimental infections in mice. Mice were challenged via the intraperitoneal route with a 100 X LD50 dose of the pathogens in a 5% suspension of hog gastric mucin (American Laboratories, Omaha, Neb.). Bu-2349A was administered by the intramuscular route immediately after the bacterial challenge.

E. coli Juhl = experiment: experimental infections in mice; type: in vivo; conditions: Escherichia coli, 120 h, im, 100 X LD50 ip challenge, 5 days, read-out: PD50 (median protective dose)
Description: as §1

P. vulgaris A9436 = experiment: experimental infections in mice; type: in vivo; conditions: Proteus vulgaris, A9436, 120 h, im, 100 X LD50 ip challenge, 5 days, read-out: PD50 (median protective dose)
Description: as §1

K. pneumoniae A9977 = experiment: experimental infections in mice; type: in vivo; conditions: Klebsiella pneumoniae, A9977, 120 h, im, 100 X LD50 ip challenge, 5 days, read-out: PD50 (median protective dose)
Description: as §1

S. aureus Smith = experiment: experimental infections in mice; type: in vivo; conditions: Staphylococcus aureus, 120 h, im, 100 X LD50 ip challenge, 5 days, read-out: PD50 (median protective dose)
Description: as §1

S. pneumoniae A20759 = experiment: experimental infections in mice; type: in vivo; conditions: im
Description: as §1

anaerobic organisms = experiment: in vitro activity against anaerobic bacteria, overall statement; type: cell-based; conditions: most of the anaerobic organisms tested
[4] = system: Escherichia coli (Ec-62), AAC(3)- 1; experiment: MIC, two-fold agar dilution; type: cell-based; conditions: 18 h, Table 3, Mueller-Hinton agar, 10^-4 dilution, enzyme AAC(3)- 1
[5] = system: Klebsiella pneumoniae (Kp-33), AAC(3)-3; experiment: MIC, two-fold agar dilution; type: cell-based; conditions: 18 h, Table 3, Mueller-Hinton agar, 10^-4 dilution, enzyme AAC(3)-3
[6] = system: gram-positive and gram-negative bacteria; experiment: in vitro antibacterial activity, overall statements; type: cell-based
Description: (§2) The minimum inhibitory concentrations (MIC) of Bu-2349A and B were determined against a wide variety of bacteria by the two-fold agar dilution method. Mueller-Hinton agar medium was generally used for the determination of bacterial MIC except for species of Streptococcus, Neisseria and Hemophilus for which Gonococcus agar medium (GC agar, Nissui Co., Tokyo) was used. Gifu anaerobe agar medium (GAM agar, Eiken Co., Tokyo) was used for anaerobic bacteria. The MIC's were determined after overnight incubation at 37° C. with an initial inoculum equivalent to a 10^-4 dilution of an 18-hour culture for the aerobic and anaerobic bacteria, except for Streptococcus, Neisseria and Hemophilus for which a 10^-2 dilution was used.
(§3) The influence of inoculum size on MIC was tested on Mueller-Hinton agar using an inoculum of […], 10^-2 or 10^-4 dilution of the overnight culture of test organisms.
(§4) The effect of media pH on the MIC's of Bu-2349A was determined at three pH levels (6, 7 and 8) using Mueller-Hinton agar.
(§5) The media effect on the MIC's of Bu-2349A was tested using four kinds of assay media: Mueller-Hinton agar (MHA), nutrient agar (NA), heart infusion agar (HIA) and brain heart infusion agar (BHIA). The pH was adjusted at 7 and a 10^-4 dilution of overnight culture was used for the inoculum.

[7] = system: Bacteroides fragilis (Bf-7); experiment: MIC against anaerobic bacteria; type: cell-based; conditions: 18 h, Table 4, GAM Medium, pH 7
[8] = system: Veillonella parvula ATCC 17745 (Vp-1); experiment: MIC against anaerobic bacteria; type: cell-based; conditions: ATCC17745, 18 h, Table 4, GAM Medium, pH 7
Mycobacterium 607 (M6-1) = experiment: MIC, two-fold agar dilution; type: cell-based; conditions: 18 h, Table 3, Mueller-Hinton agar, 10^-4 dilution
Proteus mirabilis (Pm-1) = experiment: MIC, two-fold agar dilution; type: cell-based
Description: as §2, §3, §4, §5

[9] = system: Klebsiella pneumoniae (Kp-2); experiment: MIC, two-fold agar dilution; type: cell-based; conditions: 18 h
Description: as §2, §3, §4, §5

[10] = system: Neisseria meningitidis (Nm-1); experiment: MIC, two-fold agar dilution; type: cell-based; conditions: 18 h, Table 3, GC agar, 10^-2 dilution
[11] = system: Staphylococcus aureus Smith (Sa-2); experiment: MIC, two-fold agar dilution; type: cell-based; conditions: 18 h, Table 3, Mueller-Hinton agar, 10^-4 dilution
[12] = system: Bacteroides fragilis (Bf-1); experiment: MIC against anaerobic bacteria; type: cell-based; conditions: 18 h, Table 4, GAM Medium, pH 7

Q: How did the MIC [1] turn out when `C=C1OC(OC2C(CO)OC(Oc3ccc(C(=O)NCCCNCCCCNCCCCN)cc3)C2O)C(O)C(OC2OC(CO)C(OC3OC(C)C(N)C(O)C3NC(=O)C(C)N)C(O)C2O)C1O` (centres unmarked) [Bu-2349A] was run?
A: > 100 µg/mL

Q: And the MIC [2]?
A: 3.1 µg/mL (≈ 3.13 µM)

Q: And the MIC [3]?
A: 25 µg/mL (≈ 25.2 µM)

Q: And the ED50 (P. mirabilis A9554)?
A: 16 mg/kg

Q: And the ED50 (E. coli Juhl)?
A: 5.4 mg/kg

Q: What about the ED50 (P. vulgaris A9436) of the same molecule?
A: 12 mg/kg

Q: And the ED50 (K. pneumoniae A9977)?
A: 7.2 mg/kg

Q: And the ED50 (S. aureus Smith)?
A: 3.2 mg/kg

Q: And the ED50 (S. pneumoniae A20759; Streptococcus pneumoniae, A20759, 120 h, 100 X LD50 ip challenge, 5 days, read-out: PD50 (median protective dose))?
A: > 100 mg/kg

Q: What about the “activity against the S. pneumoniae infection” value (S. pneumoniae A20759) of the same molecule?
A: inactive

Q: And the “activity against anaerobic organisms” value (anaerobic organisms)?
A: inactive

Q: What about the MIC [4] of the same molecule?
A: 1.6 µg/mL (≈ 1.62 µM)

Q: And the MIC [5]?
A: 3.1 µg/mL (≈ 3.13 µM)

Q: What about the “effect of inoculum size on antibiotic activity” value ([6]; Mueller-Hinton agar, 10^0, 10^-2 or 10^-4 dilution) of the same molecule?
A: no significant effect

Q: And the “effect of medium on activity” value ([6]; NA and HIA compared with MHA or BHIA, pH 7)?
A: higher activity in NA and HIA than in MHA or BHIA

Q: And the “inhibitory activity both in vitro and in vivo” value ([6]; gram-positive and gram-negative bacteria, including aminoglycoside-resistant bacteria, summary statement)?
A: marked inhibitory activity

Q: And the antibacterial activity ([6]; including bacteria which produce aminoglycoside-modifying enzymes)?
A: active

Q: And the “effect of pH 6 on activity” value ([6]; pH 6 compared with pH 7)?
A: much reduced activity

Q: What about the “effect of pH 8 on activity” value ([6]; pH 8 compared with pH 7) of the same molecule?
A: approximately twice as active

Q: What about the MIC [7] of the same molecule?
A: > 100 µg/mL

Q: What about the MIC [8] of the same molecule?
A: > 100 µg/mL

Q: What about the MIC (Mycobacterium 607 (M6-1)) of the same molecule?
A: 3.1 µg/mL (≈ 3.13 µM)

Q: And the MIC (Proteus mirabilis (Pm-1); Proteus mirabilis, 18 h, Table 3, Mueller-Hinton agar, 10^-4 dilution, read-out: MIC)?
A: 6.3 µg/mL (≈ 6.36 µM)

Q: And the MIC (Proteus mirabilis (Pm-1); Proteus mirabilis, 18 h, pH 6, Table 6, Mueller-Hinton Agar, 10^-4 dilution, pH 6, read-out: MIC)?
A: > 50 µg/mL

Q: What about the MIC (Proteus mirabilis (Pm-1); Proteus mirabilis, 18 h, pH 7) of the same molecule?
A: 12.5 µg/mL (≈ 12.6 µM)

Q: And the MIC (Proteus mirabilis (Pm-1); Proteus mirabilis, 18 h, pH 7, Table 5, Mueller-Hinton Agar, pH 7, inoculum 10^0 dil., read-out: MIC)?
A: 50 µg/mL (≈ 50.5 µM)

Q: What about the MIC (Proteus mirabilis (Pm-1); Proteus mirabilis, 18 h, pH 7, Table 5, Mueller-Hinton Agar, pH 7, inoculum 10^-2 dil., read-out: MIC) of the same molecule?
A: 25 µg/mL (≈ 25.2 µM)

Q: What about the MIC (Proteus mirabilis (Pm-1); Proteus mirabilis, 18 h, pH 7, Table 7, pH 7, 10^-4 dilution, HIA, read-out: MIC) of the same molecule?
A: 6.3 µg/mL (≈ 6.36 µM)

Q: And the MIC (Proteus mirabilis (Pm-1); Proteus mirabilis, 18 h, pH 7, Table 7, pH 7, 10^-4 dilution, MHA, read-out: MIC)?
A: 6.3 µg/mL (≈ 6.36 µM)

Q: And the MIC (Proteus mirabilis (Pm-1); Proteus mirabilis, 18 h, pH 7, Table 7, pH 7, 10^-4 dilution, NA, read-out: MIC)?
A: 3.1 µg/mL (≈ 3.13 µM)

Q: What about the MIC (Proteus mirabilis (Pm-1); Proteus mirabilis, 18 h, pH 8) of the same molecule?
A: 12.5 µg/mL (≈ 12.6 µM)

Q: What about the MIC (Proteus mirabilis (Pm-1); Table 6, Mueller-Hinton Agar, 10^-4 dilution, pH 7) of the same molecule?
A: 12.5 µg/mL (≈ 12.6 µM)

Q: What about the MIC (Proteus mirabilis (Pm-1); Table 7, pH 7, 10^-4 dilution, BHIA) of the same molecule?
A: 12.5 µg/mL (≈ 12.6 µM)

Q: What about the MIC ([9]; Table 3, Mueller-Hinton agar, 10^-4 dilution, read-out: MIC) of the same molecule?
A: 3.1 µg/mL (≈ 3.13 µM)

Q: What about the MIC ([9]; pH 6, Table 6, Mueller-Hinton Agar, 10^-4 dilution, pH 6, read-out: MIC) of the same molecule?
A: 50 µg/mL (≈ 50.5 µM)

Q: What about the MIC ([9]; pH 7) of the same molecule?
A: 12.5 µg/mL (≈ 12.6 µM)

Q: What about the MIC ([9]; pH 7, Table 5, Mueller-Hinton Agar, pH 7, inoculum 10^-2 dil., read-out: MIC) of the same molecule?
A: 6.3 µg/mL (≈ 6.36 µM)

Q: And the MIC ([9]; pH 7, Table 5, Mueller-Hinton Agar, pH 7, inoculum 10^-4 dil., read-out: MIC)?
A: 3.1 µg/mL (≈ 3.13 µM)

Q: What about the MIC ([9]; pH 7, Table 6, Mueller-Hinton Agar, 10^-4 dilution, pH 7, read-out: MIC) of the same molecule?
A: 3.1 µg/mL (≈ 3.13 µM)

Q: What about the MIC ([9]; pH 7, Table 7, pH 7, 10^-4 dilution, BHIA, read-out: MIC) of the same molecule?
A: 3.1 µg/mL (≈ 3.13 µM)

Q: What about the MIC ([9]; pH 7, Table 7, pH 7, 10^-4 dilution, HIA, read-out: MIC) of the same molecule?
A: 1.6 µg/mL (≈ 1.62 µM)

Q: What about the MIC ([9]; pH 7, Table 7, pH 7, 10^-4 dilution, MHA, read-out: MIC) of the same molecule?
A: 3.1 µg/mL (≈ 3.13 µM)

Q: And the MIC ([9]; pH 7, Table 7, pH 7, 10^-4 dilution, NA, read-out: MIC)?
A: 1.6 µg/mL (≈ 1.62 µM)

Q: What about the MIC ([9]; pH 8, Table 6, Mueller-Hinton Agar, 10^-4 dilution, pH 8, read-out: MIC) of the same molecule?
A: 3.1 µg/mL (≈ 3.13 µM)

Q: What about the MIC [10] of the same molecule?
A: > 100 µg/mL

Q: And the MIC [11]?
A: 3.1 µg/mL (≈ 3.13 µM)

Q: What about the MIC [12] of the same molecule?
A: > 100 µg/mL
